Key:
[1] = biological target: T1, ADP stimulated platelet aggregation in human, citrated, platelet-rich plasma (Homo sapiens, UniProt P05106+P08514); assay: test (a): inhibition of ADP stimulated platelet aggregation (Born); assay type: cell-based; details: ADP-induced aggregation, read-out: pA2 (potency of platelet aggregation inhibition) (converted)
T1 construct: aggregating human, citrated, platelet-rich plasma; endogenous in cells; host or cells: human platelets in citrated platelet-rich plasma
Excerpt: (i) aggregating human, citrated, platelet-rich plasma by addition of adenosine diphosphate (ADP) so as to generate a dose-response curve;
(ii) generating a dose-response curve for ADP stimulated platelet aggregation in the presence of increasing amounts of a test compound (generally in the range 10^-5 M to 10^-10 M); and
(iii) calculating a pA2 value indicating potency of platelet aggregation inhibition for the test compound, averaged over several concentrations, from the calculated 50% response value for ADP aggregation in the presence and absence of the test compound.

[2] = biological target: T2, purified human platelet fibrinogen receptor (GPIIb/IIIa) (Homo sapiens, UniProt P05106+P08514); assay: test (b): GPIIb/IIIa ELISA, inhibition of biotinylated fibrinogen binding; details: biotinylated fibrinogen 10 nM, read-out: pIC50 (-log(IC50)), 50% inhibition of biotinylated fibrinogen binding (converted)
T2 construct: Glycoprotein IIb/IIIa is isolated from human platelet lysates; from tissue
Procedure: (i) Preparation of human platelet lysates.
Platelet rich plasma (prp) is harvested by centrifugation (1000 rpm, 15 minutes) of whole blood anticoagulated with acid citrate dextrose (trisodium citrate 85 mM, citric acid 70 mM, d-glucose 110 mM), 1 part to 6 parts blood. Prostacyclin (PGI2, 1 μM) is added to the prp before centrifugation (2400 rpm, 15 min) and the resulting pellet is resuspended in modified Tyrodes' solution (NaCl 130 mM, KCl 26 mM, NaHCO3 12 mM, NaH2 PO4 0.5 mM, MgCl2 1 mM, CaCl2 20 mM, Glucose 12 mM, HEPES 5 mM) containing bovine serum albumin 3.5 g/L, PGI2 1 μM and hirudin 0.5 U/ml. The platelet suspension is centrifuged (2400 rpm, 15 minutes) and the resultant pellet resuspended in 500 μl of lysis buffer (octyl glucoside 50 mM, HEPES 10 mM, NaCl 150 mM, CaCl2 1 mM, MgCl2 1 mM, PMSF 1 mM, NEM 10 mM, leupeptin 0.1 mM), agitated at 4° C. for 15 minutes then centrifuged at 24000 rpm, 15 minutes. The supernatant is stored at 4° C. and the pellet re-suspended in 500 μl of lysis buffer. […]
96 well microtitre plates are coated with 100 μl purified human platelet fibrinogen receptor (GPIIb/IIIa) diluted in coating buffer (Tris-HCl 20 mM, NaCl 150 mM, CaCl2 1 mM, pH7.4) and left overnight at 4° C. […] Colour is allowed to develop for 10-15 minutes before optical densities are read at 650 nm. […]

platelet aggregation = assay: test (a) modified: activity after oral dosing to dogs; assay type: in vivo; details: dosed orally to dogs at 3 mg/kg
Procedure: Test (a) may be modified so as to assess the effects of a test compound ex vivo on the aggregation of human blood platelets after administration of the test compound to a laboratory animal, such as a rat, rabbit, guinea pig, mouse or dog. For example, groups of fourmale, fasted Alderley Park Wistar rats are orally dosed with a test compound or appropriate vehicle, and at suitable time intervals (1, 3, 5 and 8 hours after dosing) animals are anaesthetised with fluothane and bled by heart puncture. Blood is collected into 3.2% citrate (1 part to 9 parts whole blood) and platelet poor plasma (ppp) prepared by centrifugation (4500×g for 10 minutes). […]
Equal volumes (125 μl ) of rat ppp and human prp are mixed together, ADP added, and the whole incubated (37° C.) and stirred (900 rpm) in a BioData platelet aggregometer. Aggregation is induced with ADP and agonist EC50 values calculated for human prp/rat ppp mixtures from animals dosed with test compound or vehicle. A mean concentration ratio (concentration of ADP required to cause a 50% aggregation response in human prp/rat ppp mixtures from animals dosed with antagonist, divided by the concentration of ADP to cause 50% aggregation in human prp/rat ppp mixtures from animals dosed with vehicle) is calculated at each time point. […]

T1 sequence (P08514 32-887 limits assumed): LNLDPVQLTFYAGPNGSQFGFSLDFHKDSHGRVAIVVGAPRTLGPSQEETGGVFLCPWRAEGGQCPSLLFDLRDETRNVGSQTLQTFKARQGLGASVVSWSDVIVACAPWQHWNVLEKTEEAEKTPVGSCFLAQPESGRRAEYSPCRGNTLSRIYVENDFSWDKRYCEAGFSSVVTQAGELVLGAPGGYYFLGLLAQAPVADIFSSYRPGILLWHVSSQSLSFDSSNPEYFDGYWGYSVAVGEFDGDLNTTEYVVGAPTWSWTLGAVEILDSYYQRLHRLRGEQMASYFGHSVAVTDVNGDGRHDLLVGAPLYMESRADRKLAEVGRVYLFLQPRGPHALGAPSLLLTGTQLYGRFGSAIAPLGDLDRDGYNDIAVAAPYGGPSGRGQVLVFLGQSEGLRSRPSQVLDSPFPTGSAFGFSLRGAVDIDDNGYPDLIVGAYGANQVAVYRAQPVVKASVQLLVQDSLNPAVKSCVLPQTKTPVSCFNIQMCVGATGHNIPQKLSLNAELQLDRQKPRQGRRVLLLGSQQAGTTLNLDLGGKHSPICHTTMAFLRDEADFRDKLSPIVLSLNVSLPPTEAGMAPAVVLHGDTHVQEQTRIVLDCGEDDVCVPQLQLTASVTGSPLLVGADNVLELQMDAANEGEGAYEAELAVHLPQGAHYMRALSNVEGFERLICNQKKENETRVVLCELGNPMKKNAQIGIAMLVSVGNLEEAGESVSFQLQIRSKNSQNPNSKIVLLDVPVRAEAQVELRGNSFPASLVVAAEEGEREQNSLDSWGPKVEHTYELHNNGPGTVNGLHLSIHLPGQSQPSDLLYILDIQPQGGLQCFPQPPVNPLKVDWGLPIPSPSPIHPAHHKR
T1 sequence (P08514 891-1039 limits assumed): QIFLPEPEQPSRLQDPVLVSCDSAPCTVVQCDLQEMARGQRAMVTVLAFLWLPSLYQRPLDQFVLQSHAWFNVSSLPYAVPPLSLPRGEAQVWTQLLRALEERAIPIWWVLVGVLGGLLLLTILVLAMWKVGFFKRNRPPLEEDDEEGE
T1 sequence (P05106 27-788): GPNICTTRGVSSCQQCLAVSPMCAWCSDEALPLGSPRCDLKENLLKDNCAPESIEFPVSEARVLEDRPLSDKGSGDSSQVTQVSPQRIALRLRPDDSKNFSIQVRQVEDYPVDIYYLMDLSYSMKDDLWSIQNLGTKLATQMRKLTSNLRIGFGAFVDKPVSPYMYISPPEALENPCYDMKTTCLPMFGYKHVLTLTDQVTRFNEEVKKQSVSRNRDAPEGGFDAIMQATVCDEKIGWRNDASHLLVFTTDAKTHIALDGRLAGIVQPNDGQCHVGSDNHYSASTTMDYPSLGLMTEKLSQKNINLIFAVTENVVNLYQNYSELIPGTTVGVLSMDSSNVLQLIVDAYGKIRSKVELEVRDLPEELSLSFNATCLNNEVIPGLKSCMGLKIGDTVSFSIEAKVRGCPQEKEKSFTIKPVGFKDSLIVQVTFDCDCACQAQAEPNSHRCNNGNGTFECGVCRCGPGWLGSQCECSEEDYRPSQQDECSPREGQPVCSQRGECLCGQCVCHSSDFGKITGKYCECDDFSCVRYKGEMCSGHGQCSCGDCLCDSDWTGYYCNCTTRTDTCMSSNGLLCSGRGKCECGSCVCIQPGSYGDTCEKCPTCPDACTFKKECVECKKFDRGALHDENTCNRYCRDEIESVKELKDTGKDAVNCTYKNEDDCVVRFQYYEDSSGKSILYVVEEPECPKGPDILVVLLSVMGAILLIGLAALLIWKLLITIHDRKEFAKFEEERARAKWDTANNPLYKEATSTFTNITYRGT
T2 sequence (P08514 32-887 limits assumed): as the sequence (P08514 32-887 limits assumed) above
T2 sequence (P08514 891-1039 limits assumed): as the sequence (P08514 891-1039 limits assumed) above
T2 sequence (P05106 27-788): as the sequence (P05106 27-788) above

Kb [1]	IC50 [2]	SMILES	duration of activity after oral dosing (platelet aggregation)
0.00794 µM	0.0158 µM	N=C(N)c1ccc(C(=O)NNC(=O)c2ccc(OCC(=O)O)cc2)cc1 [Example 13, 4-[3-(4-Amidinobenzoyl)carbazoyl]phenoxyacetic acid]	
0.2 µM	1.12 µM	COC(=O)COc1ccc(C(=O)NNC(=O)c2ccc(C(=N)N)cc2)cc1 [Example 12, Methyl 4-[3-(4-amidinobenzoyl)carbazoyl]phenoxyacetate]	up to 24 hours

Source: patent US5612373A, “Certain diacyl hydrazine derivatives” (Zeneca Limited, priority 1993, dated 1997)
